# Laboratory results as given in US9504722B2, “Anti-obese compositions containing holoptelea integrifolia extracts” (Laila Nutraceuticals, priority 2007, dated 2016).
# How the values were obtained:
# [1] = system: Sprague-Dawley rats on high fat diet; test: Protective effect against diet induced obesity in rats; type: in vivo, rat; details: 7 mg/kg body weight, 8 weeks, vs control group
# Experimental: Protective Effect of Holoptelea integrifolia Against Diet Induced Obesity in Rats.
# Selected healthy Sprague-Dawley rats were randomly assigned to control or various treatment groups (n=6). All the animals allocated for protective phase of the study were on dietary intervention by feeding high fat diet ad libitum and the animals allocated to treatment groups were simultaneously given oral administration of 100 mg or 250 mg/kg Holoptelea integrifolia methanol extract in 10 mL of 0.5% CMC, using gastric tube for the entire 8 week study duration. The test animals of the control group were simultaneously given 10 ml/kg of 0.5% CMC. Sibutramine (7 mg/kg body weight) was used as a positive control. Food and water consumption were recorded daily, body weights were recorded weekly and fasting blood samples were collected before initiation, after 4th week and 8th week (termination) of the study. The weight gain is plotted against the study duration in weeks (FIG. I). […] Upon administration of Holoptelea integrifolia alcohol extract for a period of 60 days, the level of triglyceride in the obese rats was reduced by 50% compared to the control. The levels of serum cholesterol and LDL were reduced by 40% and 45% respectively, whereas the level of HDL was increased by 25%.
# [2] = system: diet induced obese Sprague-Dawley rats; test: Anti-obese activity in diet induced obese rats (therapeutic); type: in vivo, rat; details: 7 mg/kg body weight, 5 weeks after 8 weeks high fat diet, vs control group
# Experimental: Anti-Obese Activity of Holoptelea integrifolia in Diet Induced Obese Rats.
# Selected healthy Sprague-Dawley rats were randomly assigned to control or various treatment groups (n=6). All the animals allocated for the study were made obese through dietary intervention by feeding high fat diet ad libitum for 8 weeks. After 8 weeks, the treatment group of animals was given oral administration of 250 mg/kg or 500 mg/kg of Holoptelea integrifolia alcohol extract in 10 mL of 0.5% CMC, using gastric tube for 5 week study duration. Sibutramine (7 mg/kg body weight) is used as a positive control. The control group of animals were given 10 ml/kg of 0.5% CMC. Food and water consumption were recorded daily, body weights were recorded weekly and fasting blood samples were collected before initiation after 5th week of the study. The weight gain for different groups compared at weekly intervals (FIG. II).
smiles,measurement,setting,value
CC(C)CC(N(C)C)C1(c2ccc(Cl)cc2)CCC1 (centres unmarked) [Sibutramine],reduction in weight gain,[1],30.5%
same,reduction in weight gain,[2],123.1%
